Results published in paper PMC12881674, “Activation of TRPV3 channels in bladder cancer cells stimulates ATP release” (Molecular Pharmacology, 2025).

Legend:
mouse TRPV4 = target: T1, mouse TRPV4 (Mus musculus, UniProt Q9EPK8); test: fluo-4 Ca2+ assay selectivity, HEK cells expressing mouse TRPV4; assay type: cell-based; details: concentrations up to 50 μM
T1 construct: expressed in transfected cells; host or cells: HEK293
From the text: KU-19-19 (DSMZ no. ACC 395), CAL-29 (DSMZ no. ACC 515), 647-V (DSMZ no. ACC 414), RT-4 (DSMZ no. ACC 412), and RT-112 (DSMZ no. ACC 418) bladder cancer cell lines were obtained from the Leibniz Institute DSMZ (German Collection of Microorganisms and Cell Cultures). Human TRPV3 (NM_145068, purchased from OriGene) and mouse TRPV3 (NM_001371006), rat TRPV1, mouse TRPV2, mouse TRPV4, human TRPM2, human TRPM8, and human TRPA1 were stably transfected in HEK293 cells as described before.[27] […]
All fluorometric Ca^2+ assays were performed in HBS buffer at room temperature. […] For the primary compound screening and the generation of concentration-response analyses, a robotic liquid handling station (Freedom Evo 150; Tecan) with a built-in custom-made fluorescence plate imager was used. […] Fluorescence was excited using a 470-nm light-emitting diode, and emitted light was imaged through a 515-nm–long pass filter with a cooled Zyla 5.5 camera (Andor). Fluorescence was recorded and processed under the control of the μ-Manager 2.0 gamma software (https://micro-manager.org.[28]). After recording baseline fluorescence, compounds were dispensed into the wells via the liquid handling device. […] For further analysis, fluorescence signals were calculated for each well, corrected for background intensities and normalized to the initial signals. […]

parental HEK cells = test: Ca2+ assays (fluo-4 and fura-2) in parental HEK cells lacking TRPV3; assay type: cell-based, human; details: concentrations up to 50 μM
Method: All fluorometric Ca^2+ assays were performed in HBS buffer at room temperature. The compounds of the Enamine Diversity Set were diluted in a buffer composed of 150 mM NaCl and 20 mM HEPES and added to the cells at a final concentration of 25 μM (0.5% DMSO). For the primary compound screening and the generation of concentration-response analyses, a robotic liquid handling station (Freedom Evo 150; Tecan) with a built-in custom-made fluorescence plate imager was used. HEKTRPV3 and bladder cancer cell lines were harvested and loaded with 4 μM fluo-4/AM (Invitrogen; Fisher Scientific) in cell culture medium for 30 minutes at 37 °C. […] Fluorescence was excited using a 470-nm light-emitting diode, and emitted light was imaged through a 515-nm–long pass filter with a cooled Zyla 5.5 camera (Andor). Fluorescence was recorded and processed under the control of the μ-Manager 2.0 gamma software (https://micro-manager.org.[28]). After recording baseline fluorescence, compounds were dispensed into the wells via the liquid handling device. […] For further analysis, fluorescence signals were calculated for each well, corrected for background intensities and normalized to the initial signals. […] Fluorescence signals were excited with a fiber-coupled monochromator device (Polychrome V; Till Photonics) at 340, 358, and 380 nm and calibrated as described before.[29] […]

T1 sequence (Q9EPK8 whole entry): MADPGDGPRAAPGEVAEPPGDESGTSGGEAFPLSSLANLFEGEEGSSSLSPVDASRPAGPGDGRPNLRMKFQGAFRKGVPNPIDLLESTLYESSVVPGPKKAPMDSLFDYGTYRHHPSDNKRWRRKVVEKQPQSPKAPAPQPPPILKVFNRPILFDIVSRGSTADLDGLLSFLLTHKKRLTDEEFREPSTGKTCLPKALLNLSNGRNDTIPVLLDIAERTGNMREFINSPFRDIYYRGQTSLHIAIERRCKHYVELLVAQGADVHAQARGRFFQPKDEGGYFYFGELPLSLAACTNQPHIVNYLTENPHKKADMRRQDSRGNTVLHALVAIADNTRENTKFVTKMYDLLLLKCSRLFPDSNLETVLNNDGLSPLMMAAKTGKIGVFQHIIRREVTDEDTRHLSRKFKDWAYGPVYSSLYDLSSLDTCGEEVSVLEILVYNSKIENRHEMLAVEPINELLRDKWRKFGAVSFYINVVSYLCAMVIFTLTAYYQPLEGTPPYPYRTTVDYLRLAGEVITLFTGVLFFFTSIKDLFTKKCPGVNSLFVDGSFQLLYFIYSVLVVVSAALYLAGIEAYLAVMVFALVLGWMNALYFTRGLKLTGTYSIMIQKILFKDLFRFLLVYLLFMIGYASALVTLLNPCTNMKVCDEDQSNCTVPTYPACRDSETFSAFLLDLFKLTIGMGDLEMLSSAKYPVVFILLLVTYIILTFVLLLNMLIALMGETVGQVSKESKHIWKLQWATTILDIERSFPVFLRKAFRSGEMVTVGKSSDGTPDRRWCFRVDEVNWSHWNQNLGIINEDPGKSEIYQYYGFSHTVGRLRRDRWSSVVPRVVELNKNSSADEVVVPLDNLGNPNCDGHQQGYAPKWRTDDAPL

effect on TRPV4 (mouse TRPV4): no effect
Compound: COC(=O)C12CN(Cc3ccccc3)CC1(C(=O)OC)CN(Cc1ccccc1)C2 (centres unmarked) [AV3-1]
off-target effects on parental HEK cells (parental HEK cells): no detectable off-target effects
